Tested on: cardiac gene expression
Experiment: Microarray analysis of cardiac gene expression (GeneChip Mouse Genome 430 2.0)
Format: in vivo, mice
Settings: mouse heart, vs isoproterenol only (CH)
Method: Microarray Sample Preparation and Analysis. Animal hearts were rapidly removed, and the atria and right ventricles were cut and immediately plunged into TRIzol Reagent (Life Technologies). Total RNA was isolated following the manufacturer's instructions, purified by phenol-chloroform extraction and then ethanol precipitation, and 20 μg further processed for microarray analysis. Briefly, cDNA synthesis, in vitro transcription, and labeling and fragmentation to produce the oligonucleotide probes were performed as instructed by the GeneChip manufacturer (Affymetrix). The probes were first hybridized to a test array (Affymetrix) and then to the GeneChip Mouse Genome 430 2.0 Array, using the GeneChip Hybridization Oven 640. The chips were washed in a GeneChip Fluidics Station 450 (Affymetrix), and the results were visualized with a GeneChip G7 scanner (Affymetrix). RMA normalization, pairwise comparisons, Student's t test and Benjamini and Hochberg correction were subsequently performed using GeneSifter (VizX Labs, Seattle, Wash.) and Spotfire DecisionSite 8.3 (Spotfire, Inc., Somerville, Mass.).
Effects on Gene Expression Profile. […] One mouse heart was used for each array, and was performed in triplicate, generating a total of 12 arrays. GeneSifter was used to perform RMA normalization, pairwise comparisons of averaged signal intensity values, and Student's t-test with Benjamini and Hochberg correction, and Spotfire was used to perform pairwise comparisons. […] Additionally, genes that were altered between any two N or cardiac hypertrophy samples were removed, as these alterations most likely represented normal variations between mice.

## C[C@H]1c2cccc(O)c2C(=O)C2=C(O)[C@]3(O)C(=O)C(C(N)=O)=C(O)[C@@H](N(C)C)[C@@H]3[C@@H](O)[C@@H]21 [doxycycline]
CH vs normal 3.3
  FC cDNA, AK012898: −2.9 fold
CH vs normal 3.4
  FC Cyclin G2 (Ccng2), NM_007635: −3.1 fold
  FC TRAF2 and K interacting kinase (Tnik), AI117633: −3.4 fold
  FC cDNA, BB098431: −1.8 fold
CH vs normal 3.5
  FC Interleukin-1 receptor-associated kinase 3 (Irak3), AV228493: −2.1 fold
CH vs normal 3.6
  FC CD163 antigen (CD163), NM_053094: −2.1 fold
CH vs normal 3.7
  FC ATP-binding cassette, sub-family A (ABC1), member 1 (Abca1), BB305534: −1.9 fold
  FC Mcf.2 transforming sequee-like (Mcf21), AV293368: −2.3 fold
  FC cDNA, BE956710: −4.4 fold
  FC cDNA, BG276629: −3.1 fold
CH vs normal 3.8
  FC Lipopolysaccharide binding protein (Lbp), NM_008489: −3.4 fold
CH vs normal 3.9
  FC Alcohol dehydrogenase 1, complex (Adh1), BC013477: −3.4 fold
  FC Nuclear factor of kappa light polypeptide gene enhaer in B-cells inhibitor, zeta (Nfkbiz), NM_030612: −2.7 fold
  FC cDNA, BB038506: −2.1 fold
CH vs normal 4.0
  FC Alpha-2-HS-glycoprotein (Ahsg), AI256465: −2.7 fold
CH vs normal 4.1
  FC BCL2/adenovirus E1B interacting protein 1, NIP3 (Bnip3), NM_009760: −2.0 fold
  FC Chitinase 3-like 3 (Chi313), NM_009892: −4.1 fold
  FC Colony stimulating factor 2 receptor, beta 2, low-affinity (granulocyte-macrophage) (Csf2rb2), NM_007781: −2.9 fold
CH vs normal 4.3
  FC NADPH oxidase 4 (Nox4), BC021378: −3.2 fold
CH vs normal 4.4
  FC Calcium-sensitive chloride conductae protein-1 (Clca1), AF047838: −3.6 fold
  FC Connector enhaer of kinase suppressor of Ras 1 (Cnksr1), BB739754: −3.6 fold
CH vs normal 4.5
  FC cDNA, AK008807: −2.7 fold
CH vs normal 4.6
  FC Arrestin domain containing 2 (Arrdc2), AW542672: −3.5 fold
  FC cDNA, BM117672: −3.2 fold
CH vs normal 4.7
  FC Serum amyloid A 3 (Saa3), NM_011315: −4.1 fold
CH vs normal 4.9
  FC Caer related gene-liver 1 (CRG-L1), AF282864: −3.0 fold
  FC Calcium/calmodulin-dependent protein kinase II, beta (Camk2b), BG862223: −4.0 fold
CH vs normal 5.0
  FC Aryl hydrocarbon receptor nuclear translocator-like (Arnt1), BC011080: −5.1 fold
CH vs normal 5.1
  FC Oostatin receptor (Osmr), NM_011019: −2.6 fold
CH vs normal 5.2
  FC cDNA, BE634869: −2.8 fold
CH vs normal 5.3
  FC cDNA, BB795572: −2.3 fold
CH vs normal 5.4
  FC cDNA, AK009753: −3.0 fold
CH vs normal 5.5
  FC cDNA, AI607873: −4.0 fold
CH vs normal 6.0
  FC Cytokine inducible SH2-containing protein 3 (Socs3), BB241535: −3.5 fold
CH vs normal 6.4
  FC Apolipoprotein D (Apod), NM_007470: −3.4 fold
  FC Cytochrome P450, 1b1, benz(a)anthracene inducible (Cyp1b1), NM_009994: −3.2 fold
  FC Membrane-spanning 4-domains, subfamily A, member 6d (Ms4a6d), NM_026835: −2.3 fold
CH vs normal 6.6
  FC mVL30-1 retroelement mRNA sequee, BG066678: −4.2 fold
CH vs normal 6.8
  FC Proteoglycan 4 (megakaryocyte stimulating factor, articular superficial zone protein) (Prg4), NM_021400: −3.3 fold
CH vs normal 7.0
  FC cDNA, BF719154: −3.2 fold
CH vs normal 7.4
  FC CCAATenhaer binding protein (CEBP), delta (Cebpd), BB831146: −4.1 fold
  FC Ca(2+)-sensitive chloride channel 2 (Clca2), AF108501: −5.1 fold
  FC Lysyl oxidase (Lox), M65143: −2.7 fold
CH vs normal 7.8
  FC cDNA, AU018141: −3.2 fold
CH vs normal 8.2
  FC Cytokine inducible SH2-containing protein 3 (Socs3), BB831725: −4.9 fold
CH vs normal 10.6, first BF682848 line
  FC cDNA, BF682848: −5.7 fold
CH vs normal 10.8
  FC C-type (calcium dependent, carbohydrate recognition domain) lectin, superfamily member 8 (Clecsf8), NM_010819: −2.7 fold
CH vs normal 11.1
  FC Lysyl oxidase (Lox), NM_010728: −3.0 fold
CH vs normal 14.6
  FC Cyclin-dependent kinase inhibitor 1A (p21) (Cdkn1a), AK007630: −6.5 fold
CH vs normal 16.3
  FC FK506 binding protein 5 (51 kDa) (Fkbp5), BC015260: −4.5 fold
CH vs normal 21.4, second BF682848 line
  FC cDNA, BF682848: −5.2 fold
CH vs normal 27.7
  FC Lipocalin 2 (Lcn2), X14607: −13.3 fold
CH vs normal 40.5
  FC Serine protease inhibitor 2-2 (Spi2-2) (Serpin3n), NM_009252: −9.7 fold
CH vs normal −1.5
  FC Metallophosphoesterase domain containing 2 (Mpped2), AK012553: 2.0 fold
CH vs normal −1.6
  FC ATP-sensitive potassium channel subunit (Kir6.2) (Kcnj11), U73626: 1.8 fold
  FC CD99 antigen (CD99), AK002762: 1.6 fold
  FC CD248 antigen, endosialin (CD248), NM_054042: 1.7 fold
  FC cDNA, BB627097: 2.4 fold
  FC cDNA, BM229539: 2.1 fold
CH vs normal −1.7
  FC Cytoplasmic polyadenylation element binding protein 3 (Cpeb3), BB281000: 2.6 fold
